What all share (format): cell-based
The target of experiment [1] is 5-hydroxytryptamine receptor 7 (Homo sapiens, UniProt P34969). Kind of experiment: Displacement of [3H] LSD from human recombinant 5-HT7 receptor expressed in CHO-K1 cells at 10 uM incubated for 120 mins by spectrophotometric analysis relative to control.
Experiment [2] concerns the target 5-hydroxytryptamine receptor 2B (Homo sapiens) (UniProt P41595). As to the kind of experiment: Displacement of [3H] LSD from human recombinant 5-HT2B receptor expressed in CHO-K1 cells at 10 uM incubated for 60 mins by spectrophotometric analysis relative to control.
The target of experiment [3] is Alpha-2C adrenergic receptor (Homo sapiens) (UniProt P18825). As to the kind of experiment: Displacement of [3H]-rauwolscine from human recombinant adrenergic alpha-2c receptor expressed in CHO-K1 cells at 10 uM incubated for 60 mins by […] relative to control. A general note: Loss of bound radioactivity is the signal in a displacement assay; it reports binding, not function.
Chain of Alpha-2C adrenergic receptor (Homo sapiens) (P18825 whole entry): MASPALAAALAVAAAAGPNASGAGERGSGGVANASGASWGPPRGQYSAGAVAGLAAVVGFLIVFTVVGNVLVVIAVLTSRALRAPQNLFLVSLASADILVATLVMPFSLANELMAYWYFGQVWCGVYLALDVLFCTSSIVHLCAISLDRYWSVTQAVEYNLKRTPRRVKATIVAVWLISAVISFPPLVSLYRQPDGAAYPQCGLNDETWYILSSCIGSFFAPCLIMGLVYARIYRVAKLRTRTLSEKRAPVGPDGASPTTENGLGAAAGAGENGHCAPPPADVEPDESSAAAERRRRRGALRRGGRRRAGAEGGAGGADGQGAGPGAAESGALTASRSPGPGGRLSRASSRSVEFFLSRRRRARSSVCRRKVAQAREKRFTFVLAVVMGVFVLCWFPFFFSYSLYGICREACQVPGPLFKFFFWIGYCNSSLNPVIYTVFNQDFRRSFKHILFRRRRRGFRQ

In experiment [4] the target is Alpha-1D adrenergic receptor (Homo sapiens) (UniProt P25100). As to the kind of experiment: Displacement of [3H] prazosin from human recombinant adrenergic alpha-1d receptor expressed in HEK293 cells at 10 uM incubated for 60 mins by spectrophotometric analysis relative to control.
Chain of Alpha-1D adrenergic receptor (Homo sapiens) (P25100 whole entry): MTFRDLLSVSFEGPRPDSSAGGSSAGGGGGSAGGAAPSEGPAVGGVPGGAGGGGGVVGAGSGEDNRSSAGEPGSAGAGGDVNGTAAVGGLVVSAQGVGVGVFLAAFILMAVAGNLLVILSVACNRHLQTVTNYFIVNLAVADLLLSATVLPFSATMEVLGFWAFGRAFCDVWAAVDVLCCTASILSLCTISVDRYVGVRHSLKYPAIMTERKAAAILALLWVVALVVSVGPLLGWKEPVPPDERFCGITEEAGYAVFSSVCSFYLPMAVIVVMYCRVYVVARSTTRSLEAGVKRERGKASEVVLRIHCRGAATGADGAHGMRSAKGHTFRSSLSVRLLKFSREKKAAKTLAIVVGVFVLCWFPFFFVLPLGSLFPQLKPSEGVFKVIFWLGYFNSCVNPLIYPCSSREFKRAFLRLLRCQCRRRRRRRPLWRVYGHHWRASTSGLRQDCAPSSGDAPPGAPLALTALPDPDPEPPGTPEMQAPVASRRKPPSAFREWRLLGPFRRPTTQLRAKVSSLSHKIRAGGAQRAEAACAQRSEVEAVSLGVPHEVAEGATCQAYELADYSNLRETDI
Experiment [5] addresses Neuronal acetylcholine receptor; alpha3/beta4 (Homo sapiens, UniProt P30926+P32297). As to the kind of experiment: Displacement of [125I]-epibatidine from human recombinant nAChR alpha3beta4 receptor expressed in CHO-K1 cells at 10 uM incubated for 60 mins by spectrophotometric analysis relative to control.
Experiment [6] concerns the target 5-hydroxytryptamine receptor 1A (Homo sapiens) (UniProt P08908). As to the kind of experiment: Displacement of [3H] 8-OH-DPAT from human recombinant 5-HT1A receptor expressed in CHO-K1 cells at 10 uM incubated for 60 mins by spectrophotometric analysis relative to control.
The target in experiment [7] is Histamine H1 receptor (Homo sapiens) (UniProt P35367). As to the kind of experiment: Displacement of [3H] pyrilamine from human recombinant histamine H1 receptor expressed in CHO-K1 cells at 10 uM incubated for 180 mins by spectrophotometric analysis relative to control.
Experiment [8] addresses Alpha-1B adrenergic receptor (Homo sapiens) (UniProt P35368). As to the kind of experiment: Displacement of [3H] prazosin from human recombinant adrenergic alpha-1b receptor expressed in […] cells at 10 uM incubated for 60 mins by spectrophotometric analysis relative to control.
The target in experiment [9] is 5-hydroxytryptamine receptor 6 (Homo sapiens, UniProt P50406). As to the kind of experiment: Displacement of [3H] LSD from human recombinant 5-HT6 receptor expressed in human HeLa cells at 10 uM incubated for 120 mins by spectrophotometric analysis relative to control.
Chain of 5-hydroxytryptamine receptor 6 (P50406 whole entry): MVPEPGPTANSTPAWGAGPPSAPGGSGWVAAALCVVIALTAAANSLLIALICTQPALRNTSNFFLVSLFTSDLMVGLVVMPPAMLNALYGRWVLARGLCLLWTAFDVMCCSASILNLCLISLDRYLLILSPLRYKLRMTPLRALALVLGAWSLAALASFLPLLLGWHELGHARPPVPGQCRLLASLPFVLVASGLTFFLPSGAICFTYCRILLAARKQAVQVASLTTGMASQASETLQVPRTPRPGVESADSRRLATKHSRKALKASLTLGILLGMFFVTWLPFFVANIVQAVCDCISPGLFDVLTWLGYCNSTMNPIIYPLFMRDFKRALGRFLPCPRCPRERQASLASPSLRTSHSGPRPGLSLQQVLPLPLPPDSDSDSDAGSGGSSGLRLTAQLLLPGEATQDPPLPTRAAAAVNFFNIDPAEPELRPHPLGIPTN
The target in experiment [10] is Alpha-1A adrenergic receptor (Homo sapiens) (UniProt P35348). As to the kind of experiment: Displacement of [3H] prazosin from human recombinant adrenergic alpha-1a receptor expressed in […] cells at 10 uM incubated for 60 mins by spectrophotometric analysis relative to control.
Chain of Alpha-1A adrenergic receptor (Homo sapiens) (P35348 whole entry): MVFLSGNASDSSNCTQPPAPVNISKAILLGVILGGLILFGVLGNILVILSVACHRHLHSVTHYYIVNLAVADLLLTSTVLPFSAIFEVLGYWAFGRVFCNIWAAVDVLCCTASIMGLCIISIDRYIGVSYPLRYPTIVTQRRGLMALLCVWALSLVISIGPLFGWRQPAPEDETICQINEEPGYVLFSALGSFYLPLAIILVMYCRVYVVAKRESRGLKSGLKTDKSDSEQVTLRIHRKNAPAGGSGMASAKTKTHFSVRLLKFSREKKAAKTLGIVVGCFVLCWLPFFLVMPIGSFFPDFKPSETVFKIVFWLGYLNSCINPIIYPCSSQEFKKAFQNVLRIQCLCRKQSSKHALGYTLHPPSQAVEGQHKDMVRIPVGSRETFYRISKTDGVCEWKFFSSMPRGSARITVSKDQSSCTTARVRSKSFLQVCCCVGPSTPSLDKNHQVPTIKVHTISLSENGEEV
In experiment [11] the target is Alpha-2B adrenergic receptor (Homo sapiens) (UniProt P18089). Kind of experiment: Displacement of [3H]-rauwolscine from human recombinant adrenergic alpha-2b receptor expressed in […] cells at 10 uM incubated for 60 mins by […] relative to control.
Chain of Alpha-2B adrenergic receptor (Homo sapiens) (P18089 whole entry): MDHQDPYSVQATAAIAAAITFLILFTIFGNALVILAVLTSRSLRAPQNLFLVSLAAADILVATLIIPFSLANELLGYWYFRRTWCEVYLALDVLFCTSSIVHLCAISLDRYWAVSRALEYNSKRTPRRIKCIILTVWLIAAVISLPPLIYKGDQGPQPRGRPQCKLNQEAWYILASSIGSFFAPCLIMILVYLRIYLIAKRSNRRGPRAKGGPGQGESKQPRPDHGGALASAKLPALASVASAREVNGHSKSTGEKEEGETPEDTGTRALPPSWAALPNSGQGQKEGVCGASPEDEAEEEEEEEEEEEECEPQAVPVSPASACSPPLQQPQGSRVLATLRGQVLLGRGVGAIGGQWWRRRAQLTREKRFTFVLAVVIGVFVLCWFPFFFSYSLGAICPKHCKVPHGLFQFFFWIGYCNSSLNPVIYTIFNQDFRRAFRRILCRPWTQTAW
Experiment [12] deals with 5-hydroxytryptamine receptor 1B (Homo sapiens, UniProt P28222). Kind of experiment: Displacement of [3H] GR125743 from human recombinant 5-HT1B receptor expressed in […] cells at 10 uM incubated for 90 mins by spectrophotometric analysis relative to control.
Chain of 5-hydroxytryptamine receptor 1B (P28222 whole entry): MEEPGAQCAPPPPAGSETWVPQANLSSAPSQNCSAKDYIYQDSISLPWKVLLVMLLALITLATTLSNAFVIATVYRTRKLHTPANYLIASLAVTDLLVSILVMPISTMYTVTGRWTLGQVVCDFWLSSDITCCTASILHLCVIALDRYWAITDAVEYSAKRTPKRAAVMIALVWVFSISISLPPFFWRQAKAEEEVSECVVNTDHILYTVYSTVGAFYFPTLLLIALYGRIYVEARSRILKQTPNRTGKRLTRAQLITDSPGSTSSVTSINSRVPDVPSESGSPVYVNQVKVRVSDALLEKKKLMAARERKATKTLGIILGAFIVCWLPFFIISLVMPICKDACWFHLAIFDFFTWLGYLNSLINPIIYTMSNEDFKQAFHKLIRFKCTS
The target of experiment [13] is Alpha-2A adrenergic receptor (Homo sapiens) (UniProt P08913). Kind of experiment: Displacement of [3H]-rauwolscine from human recombinant adrenergic alpha-2A receptor expressed in CHO-K1 cells at 10 uM incubated for 60 mins by spectrophotometric analysis relative to control.
Experiment [14] deals with 5-hydroxytryptamine receptor 5A (Homo sapiens, UniProt P47898). As to the kind of experiment: Displacement of [3H] LSD from human recombinant 5-HT5A receptor expressed in CHO-K1 cells at 10 uM incubated for 60 mins by spectrophotometric analysis relative to control.
Chain of 5-hydroxytryptamine receptor 5A (P47898 whole entry): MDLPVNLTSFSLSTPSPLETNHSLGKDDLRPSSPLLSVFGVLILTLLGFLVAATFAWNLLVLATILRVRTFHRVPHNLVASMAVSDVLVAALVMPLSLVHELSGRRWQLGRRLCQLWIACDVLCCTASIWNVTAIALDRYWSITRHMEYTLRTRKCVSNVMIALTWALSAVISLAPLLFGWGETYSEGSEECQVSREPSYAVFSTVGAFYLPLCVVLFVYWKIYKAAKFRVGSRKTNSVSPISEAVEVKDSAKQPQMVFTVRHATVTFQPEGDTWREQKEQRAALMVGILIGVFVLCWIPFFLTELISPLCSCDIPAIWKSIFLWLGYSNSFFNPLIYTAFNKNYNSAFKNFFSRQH
For experiment [15], the target named is T1, Alpha-2A adrenergic receptor (Homo sapiens, UniProt P08913).
T1 sequence (P08913 whole entry): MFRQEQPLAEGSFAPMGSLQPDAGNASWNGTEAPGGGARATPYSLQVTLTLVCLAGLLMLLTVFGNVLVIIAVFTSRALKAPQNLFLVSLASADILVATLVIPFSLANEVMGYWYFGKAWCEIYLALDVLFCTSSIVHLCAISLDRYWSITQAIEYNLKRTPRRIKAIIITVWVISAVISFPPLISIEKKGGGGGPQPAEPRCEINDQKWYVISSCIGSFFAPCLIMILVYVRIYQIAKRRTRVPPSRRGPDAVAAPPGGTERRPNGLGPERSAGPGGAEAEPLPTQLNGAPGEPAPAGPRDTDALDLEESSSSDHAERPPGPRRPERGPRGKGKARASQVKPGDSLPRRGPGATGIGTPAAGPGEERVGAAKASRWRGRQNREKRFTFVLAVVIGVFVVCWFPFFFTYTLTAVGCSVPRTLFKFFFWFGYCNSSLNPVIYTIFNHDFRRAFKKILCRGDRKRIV
As to the kind of experiment: Displacement of [3H]-rauwolscine from human recombinant adrenergic alpha-2A receptor expressed in CHO-K1 cells assessed as inhibition constant incubated for 60 mins by spectrophotometric analysis.

Experiment [16] has as its target Sigma non-opioid intracellular receptor 1 (Homo sapiens) (UniProt Q99720). Kind of experiment: Displacement of [3H] pentazocine from human sigma 1 receptor expressed in human Jurkat cells at 10 uM incubated for 120 mins by spectrophotometric analysis relative to control. To be noted: tested as the 2H-labelled form.
For experiment [17] the target is unchanged. As to the kind of experiment: Displacement of [3H] pentazocine from human sigma 1 receptor expressed in human Jurkat cells at <=10 uM incubated for 120 mins by spectrophotometric analysis.

The values that follow come from ChEMBL document CHEMBL5370593, “Discovery and In Vitro Characterization of SPL028: Deuterated N,N-Dimethyltryptamine” (ACS Med Chem Lett, 2023).

Each structure is given as a SMILES string. pKi: −log10 of the molar value. Calls of active or inactive are those of the source. No cut-off for these calls is given here.

As a reminder, the inhibition is the change of the read-out against control, counted positive when it falls. In general, pKi refers to the Ki on a negative log10 scale, so that one unit is a factor of ten.

Chain of Sigma non-opioid intracellular receptor 1 (Homo sapiens) (Q99720 whole entry): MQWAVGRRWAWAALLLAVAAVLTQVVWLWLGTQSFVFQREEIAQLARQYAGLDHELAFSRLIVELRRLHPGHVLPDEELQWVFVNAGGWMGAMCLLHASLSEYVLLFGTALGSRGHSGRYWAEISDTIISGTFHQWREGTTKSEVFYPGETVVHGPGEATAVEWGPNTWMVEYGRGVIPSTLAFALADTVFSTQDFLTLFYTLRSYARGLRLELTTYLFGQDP
Chain of 5-hydroxytryptamine receptor 7 (P34969 whole entry): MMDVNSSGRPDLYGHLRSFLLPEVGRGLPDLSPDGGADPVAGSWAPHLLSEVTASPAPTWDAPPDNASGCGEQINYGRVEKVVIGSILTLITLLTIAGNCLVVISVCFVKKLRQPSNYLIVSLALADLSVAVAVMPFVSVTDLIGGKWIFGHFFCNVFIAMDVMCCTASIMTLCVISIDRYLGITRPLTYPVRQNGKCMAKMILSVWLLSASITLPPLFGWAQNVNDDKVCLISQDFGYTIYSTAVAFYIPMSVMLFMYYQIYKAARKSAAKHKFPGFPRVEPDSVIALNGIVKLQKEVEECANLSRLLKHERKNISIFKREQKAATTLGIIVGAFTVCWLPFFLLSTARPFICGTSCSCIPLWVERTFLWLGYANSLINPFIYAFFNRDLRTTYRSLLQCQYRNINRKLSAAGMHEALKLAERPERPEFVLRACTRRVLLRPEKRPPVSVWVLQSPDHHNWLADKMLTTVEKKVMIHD
Chain of 5-hydroxytryptamine receptor 2B (Homo sapiens) (P41595 whole entry): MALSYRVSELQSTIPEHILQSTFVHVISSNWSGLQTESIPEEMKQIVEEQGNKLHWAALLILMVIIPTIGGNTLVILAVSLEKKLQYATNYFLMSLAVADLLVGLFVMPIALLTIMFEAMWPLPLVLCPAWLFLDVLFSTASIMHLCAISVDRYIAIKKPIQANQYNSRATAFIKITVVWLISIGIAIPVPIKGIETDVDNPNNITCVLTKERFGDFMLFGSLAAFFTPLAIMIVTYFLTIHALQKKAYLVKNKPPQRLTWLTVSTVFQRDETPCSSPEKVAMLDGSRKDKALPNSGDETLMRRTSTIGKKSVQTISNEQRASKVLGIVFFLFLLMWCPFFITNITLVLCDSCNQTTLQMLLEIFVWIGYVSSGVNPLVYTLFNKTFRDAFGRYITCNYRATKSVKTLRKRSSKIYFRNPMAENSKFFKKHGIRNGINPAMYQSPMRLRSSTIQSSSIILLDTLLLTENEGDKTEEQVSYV
Chain of Alpha-1B adrenergic receptor (Homo sapiens) (P35368 whole entry): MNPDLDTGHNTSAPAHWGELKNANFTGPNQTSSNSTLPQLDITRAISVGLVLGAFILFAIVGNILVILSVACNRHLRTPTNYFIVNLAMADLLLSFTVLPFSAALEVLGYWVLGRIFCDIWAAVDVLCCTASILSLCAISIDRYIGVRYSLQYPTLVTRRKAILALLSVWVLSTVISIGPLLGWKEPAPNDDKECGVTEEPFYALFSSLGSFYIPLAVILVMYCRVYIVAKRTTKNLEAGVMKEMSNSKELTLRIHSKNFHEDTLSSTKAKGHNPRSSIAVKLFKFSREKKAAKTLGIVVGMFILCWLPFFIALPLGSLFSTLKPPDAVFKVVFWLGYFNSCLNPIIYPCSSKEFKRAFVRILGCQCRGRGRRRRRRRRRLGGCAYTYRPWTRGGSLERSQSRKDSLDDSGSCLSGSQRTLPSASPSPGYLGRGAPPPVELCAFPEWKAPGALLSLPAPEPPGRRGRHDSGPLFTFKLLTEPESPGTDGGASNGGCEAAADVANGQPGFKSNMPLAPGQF

Consider `CN(C)CCc1c[nH]c2ccccc12.O=C(O)/C=C/C(=O)O`, for which the inhibition in experiment [1] is 90.4%; in experiment [1] (tested as the 2H-labelled form) it was 95.5%; in experiment [2], 95.5%; in experiment [2] (tested as the 2H-labelled form) it was 96.5%; in experiment [3] it was 58.4%; in experiment [3] (tested as the 2H-labelled form) it was 57.6%. In addition, the inhibition in experiment [4] was found to be 54.1%; in [4] (tested as the 2H-labelled form), 63.2%; in [5], 64.6%; in experiment [5] (tested as the 2H-labelled form), 63.5%; in experiment [6], 96%; in experiment [6] (tested as the 2H-labelled form) it was 97.6%. In addition, the inhibition came out at 88.8% in [7]; 91.4% in experiment [7] (tested as the 2H-labelled form); 85.8% in experiment [8]; 87.2% in experiment [8] (tested as the 2H-labelled form); 86.1% in [9]; 86.2% in experiment [9] (tested as the 2H-labelled form). Further, the inhibition in experiment [10] was determined as 85.1%; in experiment [10] (tested as the 2H-labelled form) it was 85.1%; in [11], 81.1%; in experiment [11] (tested as the 2H-labelled form), 79.8%; in [12], 73.1%; in experiment [12] (tested as the 2H-labelled form), 75.5%. The inhibition was found to be 67.1% in experiment [13]; 69.1% in experiment [13] (tested as the 2H-labelled form); 72.7% in experiment [14]; 70.2% in [14] (tested as the 2H-labelled form); 45% in experiment [16]. Besides, in experiment [15], the pKi was 5.95. The inhibition entry in experiment [17] and in [17] (tested as the 2H-labelled form) was “inactive” in each case.

As to `O=C(O)/C=C/C(=O)O.[2H]C([2H])(Cc1c[nH]c2ccccc12)N(C)C`, in experiment [15], the pKi is 5.82.
